Patent US8410078B2, “Composition and methods to treat cardiac diseases” (University of Connecticut, priority 2006, dated 2013)

Tests used:
[1] = system: WT mice; assay: Survival after LAD ligation-induced myocardial infarction in WT mice; assay type: in vivo, mouse; conditions: treated from two days post-infarction, up to 60 days post-infarction
Experimental: Ligation of LAD in anesthetized mice was carried out using procedures similar to those previously described in the art. Adult WT (BL6) or P2X4R Tg mice 12-14 weeks old of either gender were anesthetized with ketamine (100 mg/kg) and xylazine (5 mg/kg) intraperitoneally. Under a dissecting microscope, mice were placed in a supine position on a heated pad to keep body temperature at 37° C. After endotracheal intubation, the cannula was connected to a small rodent ventilator (Hugo Sachs-Harvard Apparatus, Minivent Type 845, Holliston, Mass.) on room air with a stroke volume of 0.3 ml at a rate of 160 per min. A left intercostals thoracotomy was performed and myocardial infarction was produced by ligating the left anterior descending coronary artery with an 8-0 nylon suture within 2 mm below the edge of left atrium near the origin of the artery. The ligation was deemed successful when the left anterior wall turned pale and the ligation was aimed to induce a 30-40% infarct size. Animals were used according to the approved protocols of the Institutional Review Board at University of Connecticut School of Medicine.
The LAD ligation-mediated ischemic cardiomyopathy was induced in WT mice. (FIG. 26) At two days post-infarction, 15 mice were treated with […] and 19 mice were treated with NS (normal saline as the vehicle control). […]

[2] = system: intact WT mouse hearts; assay: Cardiac function in intact WT mouse heart preparation
Experimental: Following injection of heparin via tail vein (500 U/kg, iv) and anesthetization with nembutal (125 mg/kg for rats and 150 mg/kg for mice, ip) intraperitoneally, heart with all major vessels and lungs attached were excised. The aorta was then cannulated with a 20-gauge catheter, positioned about 2 mm above the coronary ostia. For the Langendorff method, a water-filled latex balloon (size #3) was inserted into the lumen of the left ventricle via the left atrium. The distal end of the balloon attached catheter was connected to a pressure transducer for measurement of intraventricular pressure and ±dP/dt. The balloon was inflated to a constantly held diastolic pressure of 5-7 mmHg. […]
For the working heart model, a column of KHS buffer produced a constant hydrostatic pressure of 65 mmHg (for rat) or 55 mmHg (for mice). […] Aortic flow was the amount of perfusate exiting the aortic cannula measured in […]. […]
The pressure recordings were channeled from amplifiers which had been pre-calibrated by a transducer simulator/calibrator (Ken Scientific Corp., Litchfield, Conn.). […] Data were analyzed by computer software (WorkBench for Windows+, Kent Scientific Corp) designed for an IBM-compatible computer (Dell). […] Data obtained with and without drug were analyzed by paired t test for possible statistically significant differences. […]

SMILES: Nc1nc(Cl)nc2c1ncn2C1[C@H]2C[C@@]2(COP(=O)(O)O)[C@@H](O)[C@H]1O (stereo partly drawn) [MRS2339, (1′S,2′R,3′S,4′R,5′S)-4-(6-amino-2-chloro-9H-purin-9-yl)-1-[phosphoryloxymethyl]bicyclo[3.1.0]hexane-2,3-diol]
- Post-infarction survival [1]: greater than 95%
- +dP/dt [2]: increased
